Columns and labels:
[1] = target: T1, Son of sevenless homolog 1 [564-1049] (Human, UniProt Q07889); assay: Surface Plasmon Resonance (SPR) SOS1 Binding AssaySurface Plasmon Resonance (SPR) SOS1 Binding Assay
T1 construct: 564-1049
T1 sequence (Q07889 whole entry): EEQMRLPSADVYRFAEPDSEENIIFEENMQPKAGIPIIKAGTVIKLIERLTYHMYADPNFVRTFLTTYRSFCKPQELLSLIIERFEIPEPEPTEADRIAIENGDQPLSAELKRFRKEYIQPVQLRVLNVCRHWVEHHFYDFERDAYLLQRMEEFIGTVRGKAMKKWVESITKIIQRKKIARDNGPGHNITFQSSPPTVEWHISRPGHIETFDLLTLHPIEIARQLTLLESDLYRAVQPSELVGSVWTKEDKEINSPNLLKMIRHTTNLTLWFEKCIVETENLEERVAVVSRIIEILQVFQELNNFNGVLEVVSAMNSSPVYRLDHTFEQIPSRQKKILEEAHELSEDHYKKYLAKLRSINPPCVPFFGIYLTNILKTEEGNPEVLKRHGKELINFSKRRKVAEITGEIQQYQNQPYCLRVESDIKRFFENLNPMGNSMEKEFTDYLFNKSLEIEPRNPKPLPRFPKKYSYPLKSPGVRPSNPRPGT
Procedure: Binding to SOS1 was measured using a SPR assay with purified recombinant human SOS1 substrate (res. 564-1049 with N-terminal Avi tag; purified and biotinylated based on Hillig, et al., Proc Natl Acad Sci USA (2019); 116(7):2551-2560). SPR measurements were performed on a Biacore 8K SPR instrument (GE Healthcare, Sweden). Assays were performed at 25° C. using Series S SA sensor chips pre-coated with streptavidin (GE Healthcare, Cat. BR100531). Biotinylated SOS1 diluted in sample buffer (20 mM Tris HCI, 150 mM NaCl, 1 mM DTT, 0.05% TWEEN 20, 1 mM MgCh, pH 8.0) was captured to one flow cell of the chip to about 3,000 resonance units (RU) using sample buffer supplemented with 5% DMSO as a running buffer. Serial dilutions of the assayed compounds in the running buffer at 100, 50 or 0.5 µM were injected for 60 s at a flow rate of 30 µL/min and association phases were recorded. Dissociation of the samples was monitored for 600 s. Data processing was performed using Biacore Insight Software (Biacore, GE Healthcare). Sensorgrams recorded on a SA flow cell without captured protein were subtracted from sensorgrams recorded on the SOS1 surface. Blank injections of running buffer were used for double referencing and solvent correction was applied to all sample sensorgrams to correct for buffer mismatches. KDS were estimated using a kinetic or steady state, where applicable, fitting model describing a reversible equilibrium with 1:1 binding between SOS1 and the compound.

[2] = target: T2, Son of sevenless homolog 1 [564-1049]/GTPase KRas [G12C] (UniProt Q07889); assay: SOS1 KRas(G12C) FRET Assay
T2 construct: 564-1049
Procedure: A 2x KRAS working solution was prepared in an assay buffer containing 5 nM GST-KRAS G12C and 2 nM anti-GST-Eu(K) (Cisbio, Cat. 61GSTKLA) and pre-incubated for 15 minutes at 25° C. […] The final DMSO concentration is 0.5%. […] FRET signal was converted to percentage of protein-protein interaction using the following equation:%Inhibition=100%-C-N/P-N*100%C: signal with compound treatmentP: signal for positive control (DMSO)N: signal for negative control (no SOS1 added).

T2 sequence (P01116 whole entry G12C, one chain of several): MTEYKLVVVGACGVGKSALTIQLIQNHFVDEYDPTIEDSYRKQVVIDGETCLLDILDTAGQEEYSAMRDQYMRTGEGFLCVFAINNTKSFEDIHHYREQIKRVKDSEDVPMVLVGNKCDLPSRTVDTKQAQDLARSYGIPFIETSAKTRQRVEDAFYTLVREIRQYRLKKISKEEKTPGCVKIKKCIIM

Row | Kd [1] [nM] | IC50 [2] [nM] | SMILES
1 | 6 |  | Cc1c([C@@H](C)NC(=O)c2cn(C3CCOCC3)c(=O)cc2NC2CCN(C)CC2)cccc1C(F)(F)F [US20230348424, Example 1]
2 | 24 | 35.7 | C[C@@H](NC(=O)c1cn(C2(C(F)(F)F)CC2)c(=O)cc1N[C@H]1[C@@H]2CN(C)C[C@@H]21)c1cccc(C(F)(F)F)c1F [US20230348424, Example 120]
3 | 12 |  | C[C@@H](NC(=O)c1cn(C23CC(C2)C3)c(=O)cc1N[C@H]1[C@@H]2CNC[C@@H]21)c1cccc(C(F)F)c1F [US20230348424, Example 89]

— BindingDB's records for patent US20230348424 (Schrödinger, 2023)
